Experiment: gradient 5% acetonitrile 3 min, to 50% in 2 min, to 85% in 15 min, held 3 min, 100 µL/min
Settings: column: Zorbax Extend-C18 2.1 x 50 mm; eluents: water / acetonitrile, 0.1% formic acid
Outline: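 A Zorbax Extend-C18 column (2.1 × 50 mm, 1.8 μm) run at 100 μL/min with water and acetonitrile, both containing 0.1% formic acid, separated mixtures of ~100 pure standards. The HPLC was coupled to a quadrupole time-of-flight mass spectrometer operated in positive and negative ionization mode, with dead and dwell volumes of 40 μL and 900 μL. Each retention time was taken from a computationally picked adduct peak that was then manually inspected.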

RP-LC retention time	SMILES
773 s	O=C(c1ccoc1)N1CCC(c2nc(-c3ccccc3)no2)C1 (centres undefined)
602 s	CN1CCN(CCNC(=O)c2nn(-c3ccc(Cl)cc3)c3c(=O)n(C)cnc23)CC1
650 s	CCC1CCCCN1C(=O)c1cnc2nc(C)ccc2c1Nc1ccccc1 (centres undefined)
951 s	O=C(NCCCc1ccccc1)C1CCCN(c2nc3ccsc3c(=O)n2-c2ccc(F)cc2)C1 (centres undefined)
746 s	CCOc1ccc(-n2nnnc2CN2CCN(C(=O)c3cccs3)CC2)cc1
1010 s	Cc1csc(-c2cc(S(=O)(=O)NCCC(C)C)cn2CC(=O)N2CCCCC2)n1
842 s	CCCCOc1ccc(CNC(=O)C2CCN(Cc3cn(CC)c4ccc(OC)cc34)CC2)cc1
696 s	COc1ccc2cccc(CCNC(C)=O)c2c1
804 s	Cc1noc(-c2ccc(=O)n(Cc3nc(-c4ccccc4)oc3C)c2)n1
755 s	COC(=O)c1c(C)[nH]c(C(=O)N2CCCC(C(=O)NCc3ccc(OC)cc3OC)C2)c1C (centres undefined)
663 s	O=C(NCc1ccc(F)cc1)Nc1c(-c2ccc(F)cc2)nc2ccccn12
936 s	CCCn1cc(S(=O)(=O)NCc2cccc(F)c2)c2cccnc21
804 s	Cc1ccccc1Nc1c(-c2ccc(Cl)cc2)nc2ccccn12
893 s	Cc1c(C(=O)NCCOc2cccc(C(F)(F)F)c2)cccc1[N+](=O)[O-]
800 s	COCCN1C(=O)CCc2cc(NS(=O)(=O)c3ccc(F)c(C)c3)ccc21
900 s	Cc1cc(-c2nnc(C3CCC3)o2)c(C)n1CC(=O)Nc1cccc(F)c1
1040 s	CCc1ccc(CNC(=O)C2CCN(c3ncccc3S(=O)(=O)N3CCCCC3)CC2)cc1
1070 s	COc1ccccc1N1CCN(c2cc(SCC(=O)Nc3cc(C)cc(C)c3)ncn2)CC1
978 s	Clc1ccccc1-c1noc(Cc2nnc(-c3ccccc3)o2)n1
562 s	Cc1cccc(N2C(=O)c3cccnc3C2CC(=O)N2CCN(c3ccccn3)CC2)c1 (centres undefined)
830 s	CCc1nc2cc(-c3noc(-c4cnccn4)n3)ccc2o1
615 s	CCc1nnc2cc(N3CCN(C(=O)c4ccc(OC)cc4)CC3)cnn12

RP-LC retention time	SMILES
846 s	Cc1cccc(N2CCN(CC(O)COc3ccc(Cl)cc3)CC2)c1 (centres undefined)
856 s	Cc1ccc(-c2cc(C(=O)O)n(C)c2)cc1
1190 s	O=C(Nc1c(C(=O)Nc2ccccc2F)oc2ccccc12)c1ccc(Br)o1
685 s	Cc1ccc(-c2nc(-c3ccc4c(c3)ncn4CCN3CCOCC3)no2)cc1C
698 s	OCCNc1nc(NCCc2cccs2)nc2c1cnn2-c1ccc(F)cc1
1140 s	O=C(Cn1nc2c3c4c(sc3ncn2c1=O)CCCC4)N1CCc2ccccc2C1
780 s	Cc1ccc(-c2ncccc2CNS(=O)(=O)c2ccc(Cl)s2)cc1
1010 s	O=C(CCn1nnc2cc(-c3noc(-c4ccc(Cl)cc4)n3)ccc21)N1CCCC1
949 s	COc1cc(NC(=O)C2CCCN(S(=O)(=O)c3cc(-c4noc(C)n4)cs3)C2)cc(OC)c1 (centres undefined)
911 s	O=C(C1CCN(c2nc3ccc(-c4ccsc4)nc3s2)CC1)N1CCCCC1
1100 s	O=C(Nc1ccc(-c2nc(-c3ccccc3)co2)cc1)c1cccs1
841 s	O=C(NCC1CCN(C(=O)c2cc3ccccc3o2)CC1)c1cc(Cl)ccc1Cl
1320 s	O=S(=O)(c1cccc(-c2nc(-c3ccccc3)no2)c1)N1CCc2ccccc21
582 s	COc1ccc(C2NCCc3c2[nH]c2ccccc32)cc1O (centres undefined)
805 s	CC(=O)c1cccc(NS(=O)(=O)c2ccc(-c3c(C)noc3C)cc2)c1
795 s	Cc1ccc(S(=O)(=O)N2CC(Cc3nncn3C3CCCC3)C2)cc1Cl
633 s	CCn1cnc(S(=O)(=O)N2CCCC(C(=O)Nc3ccc(-c4nc5ccccc5[nH]4)cc3)C2)c1 (centres undefined)
691 s	O=C1CCN(C(=O)COc2ccc(Cl)cc2)c2ccccc2N1
1050 s	Cc1nc(-c2cc(S(=O)(=O)Nc3ccc(F)cc3Cl)c(C)s2)cs1
703 s	O=C(Nc1nc2ccccc2[nH]1)c1cccc(Cl)c1
719 s	CN(Cc1nc2ccccc2n1Cc1ccccc1F)C(=O)c1ccco1
739 s	CCc1cc(C(=O)NCC2CCCO2)nc2cc(-c3ccccn3)nn12 (centres undefined)

RP-LC retention time	SMILES
834 s	CCOC(=O)c1cccc(Nc2c(-c3ccc4c(c3)OCO4)nc3cnccn23)c1
991 s	COc1ccc(-c2nnc(-c3cccc(S(=O)(=O)N4CCCCC4)c3)o2)cc1OC
562 s	Cc1oncc1CN1CCN(C(=O)c2c(F)cccc2F)CC1
694 s	Cc1cc(C(=O)N2CCCC(c3nnc(-c4cccs4)o3)C2)no1 (centres undefined)
695 s	CCNC(=O)c1cc(-c2ccc(F)cc2)n[nH]1
884 s	CCOC(=O)c1c(C)nn(Cc2cccc(Cl)c2)c1N
557 s	CN(C)c1ccc(CNC(=O)C2CCN(c3cnc(N4CCCC4)nc3)CC2)cc1
671 s	CN(C)CCCNC(=O)c1cc(-c2ccc(Cl)cc2)cn1C
854 s	O=C(C1=NN(Cc2ccc(Cl)cc2)c2ccccc2S1(=O)=O)N1CCOCC1
766 s	CCCNC(=O)C1CCN(c2ccc(SCC(=O)Nc3cc(C)c(Cl)cc3OC)nn2)CC1
1130 s	COc1ccc(-c2nc(-c3cccc(-c4ccnn4C)c3)no2)cc1F
853 s	CC(C)(C)c1ccc(C(=O)Nc2ccc3c(c2)C(=O)NC3=O)cc1
838 s	CC(C)CCNC(=O)C1CCN(c2nc3ccsc3c(=O)n2-c2ccccc2)CC1
1220 s	Cc1csc(-c2cc(S(=O)(=O)N3c4ccccc4CC3C)c(C)s2)n1 (centres undefined)
797 s	CC(C)CCN1C(=O)C2CCCN2C(=O)c2ccccc21 (centres undefined)
961 s	COc1ccc(-c2noc(C3CCCN3C(=O)c3ccc(N(C)C)cc3)n2)cc1 (centres undefined)
739 s	O=C(C1CC1)N1CCCn2nc(-c3ccccc3)cc2C1
661 s	Cc1nn(-c2ccc(N3CCOCC3)nn2)c(C)c1CCC(=O)NCCc1ccco1
666 s	Cc1nc(-c2cc(S(=O)(=O)N3CCC(C(=O)NCCN4CCCCCC4)CC3)c(C)s2)no1
625 s	O=C(c1ccc2ccnc(N3CCN(c4ccccc4)CC3)c2c1)N1CCN(C2CCCCC2)CC1
767 s	CCn1nnc2cc(-c3noc(CNC(=O)Cc4ccccc4)n3)ccc21
763 s	Cc1ccc(-c2cc(C(=O)N3CCC(NC(=O)c4cccs4)CC3)[nH]n2)c(C)c1

RP-LC retention time	SMILES
647 s	CC(C)c1cc(CNc2nc(Nc3cc(C4CC4)[nH]n3)cc(N3CCN(C)CC3)n2)on1
1160 s	Cc1ccc2c(c1)OCC(=O)N2Cc1nc(-c2cccc(Cl)c2)no1
660 s	O=C(CCc1c(-c2ccc(Br)cc2)nc2ccccn12)NCc1ccco1
788 s	CC1=C(c2ccc(C)c(C)c2)S(=O)(=O)N=C1N1CCC(NC(=O)C2CCCO2)CC1 (centres undefined)
1160 s	O=C(CSc1nc(-c2ccccc2)ns1)OCc1ccccc1
638 s	COc1ccc(Nc2c(C(=O)N3CCC(C)CC3)cnc3nc(C)ccc23)cc1
1030 s	Cc1cc2nn(CC(=O)N3CCc4ccccc43)c(=O)n2c(Nc2ccc(F)cc2)n1
726 s	COCCN1CCn2cc(S(=O)(=O)Nc3ccc(OC)c(Cl)c3)cc2C1=O
746 s	CC(C(=O)N1CCN(C(=O)c2ccco2)CC1)n1c2ccccc2c2cnn(C)c(=O)c21 (centres undefined)
747 s	O=C(c1cccs1)N1CCC2(CC1)N=C(c1ccccc1)NO2
1100 s	COc1cccc(-c2nc(C3CCN(S(=O)(=O)c4ccc(F)cc4)CC3)no2)c1
740 s	CCCCNC(=O)c1ccc(-c2nc(CCN(C)C(=O)CC)no2)cc1
1220 s	CCc1nc(-c2ccc(-c3noc(-c4ccnn4C)n3)cc2)cs1
783 s	Cc1ccc(CNC(=O)C2(C)Cn3nc(C(=O)NCc4ccc(F)cc4)cc3C(=O)N2C)cc1 (centres undefined)
896 s	O=C(NC1CC1)c1ccc2c(c1)CCCN2S(=O)(=O)c1ccc(Cl)cc1
611 s	Cc1ccc(C(=O)NCc2ccc3c(c2)ncn3C)c(C)c1
667 s	CC1(COc2ccc3c(c2)ncn3-c2ccc3cccc(N4CCC(N)CC4)c3n2)COC1
808 s	CSc1ccc(-c2nc3cc(C)ccn3c2Nc2ccc(C)cc2)cc1
790 s	Cc1cc(C(=O)N2CCCCC2)c2c(=O)n(CC(=O)NCCC(C)C)c(=O)n(C)c2n1
696 s	c1ccc(-c2nc[nH]c2-c2ccccc2)cc1
784 s	Cc1ccc(CNC(=O)c2sc(-c3cn(C)c4ncccc34)nc2C)cc1

SMILES	RP-LC retention time
CC(C)(C)NCC(O)c1ccccc1Cl (centres undefined)	650 s
NP(=O)(Oc1c2occc2cc2ccc(=O)oc12)N(CCCl)CCCl (centres undefined)	738 s

Reference: the METLIN SMRT retention time set (Domingo-Almenara et al. 2019)
